Measurements as given in ChEMBL document CHEMBL1201862, “PubChem BioAssay data set” (2004).
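All cell lines were grown in 96-well plates and treated with compound for 48 hours. Here, GI50 denotes the concentration required for 50% inhibition of growth.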 The source made the active and inactive calls. No stated cut-off is given here; in the data, active = GI50 up to about 1.1 µM and inactive = higher.

Tests used:
Assay in all cases: inhibition of tumour cell growth, NCI panel, 48 h
HCC 2998 = test system: HCC 2998
LOX IMVI = test system: LOX IMVI
786-0 = test system: 786-0
OVCAR-8 = test system: OVCAR-8
Hs-578T = test system: Hs-578T
RPMI-8226 = test system: RPMI-8226
SNB-19 = test system: SNB-19
NCI-H522 = test system: NCI-H522
KM12 = test system: KM12
HCT-116 = test system: HCT-116
NCI-H460 = test system: NCI-H460
SK-MEL-5 = test system: SK-MEL-5
SF-295 = test system: SF-295
HOP-92 = test system: HOP-92
OVCAR-4 = test system: OVCAR-4
SK-MEL-28 = test system: SK-MEL-28
EKVX = test system: EKVX
HCT-15 = test system: HCT-15
SN12C = test system: SN12C
MDA-MB-435 = test system: MDA-MB-435
UACC-257 = test system: UACC-257
BT-549 = test system: BT-549
COLO 205 = test system: COLO 205
NCI/ADR-RES = test system: NCI/ADR-RES
Malme-3M = test system: Malme-3M
K562 = test system: K562
HL-60 = test system: HL-60
MDA-MB-231 = test system: MDA-MB-231
SK-OV-3 = test system: SK-OV-3
M14 = test system: M14
CAKI-1 = test system: CAKI-1
A549 = test system: A549
T47D = test system: T47D
OVCAR-3 = test system: OVCAR-3
MOLT-4 = test system: MOLT-4
MCF7 = test system: MCF7
OVCAR-5 = test system: OVCAR-5
SF-539 = test system: SF-539
SNB-75 = test system: SNB-75
SW-620 = test system: SW-620
DU-145 = test system: DU-145
UO-31 = test system: UO-31
TK-10 = test system: TK-10
U-251 = test system: U-251
HOP-62 = test system: HOP-62
NCI-H23 = test system: NCI-H23
HT-29 = test system: HT-29
MDA-N = test system: MDA-N
SK-MEL-2 = test system: SK-MEL-2
RXF 393 = test system: RXF 393
SF-268 = test system: SF-268
SR = test system: SR
PC-3 = test system: PC-3
CCRF-CEM = test system: CCRF-CEM
UACC-62 = test system: UACC-62
IGROV-1 = test system: IGROV-1
ACHN = test system: ACHN
NCI-H226 = test system: NCI-H226
A498 = test system: A498

O=C1C(=Cc2cccc(Cl)c2)N=C(c2ccccc2)N1n1c(-c2ccccc2)nc2ccccc2c1=O
GI50 (HCC 2998): 30.7 µM (inactive)
GI50 (LOX IMVI): 31.3 µM (inactive)
GI50 (786-0): 47.4 µM (inactive)
GI50 (OVCAR-8): 28.7 µM (inactive)
GI50 (Hs-578T): 41.4 µM (inactive)
GI50 (RPMI-8226): 40.8 µM (inactive)
GI50 (SNB-19): 38.1 µM (inactive)
GI50 (NCI-H522): 16.4 µM (inactive)
GI50 (KM12): 9.55 µM (inactive)
GI50 (HCT-116): 10.8 µM (inactive)
GI50 (NCI-H460): 6 µM (inactive)
GI50 (SK-MEL-5): 32.4 µM (inactive)
GI50 (SF-295): 39 µM (inactive)
GI50 (HOP-92): 27 µM (inactive)
GI50 (OVCAR-4): 42.3 µM (inactive)
GI50 (SK-MEL-28): 50.2 µM (inactive)
GI50 (EKVX): 28.4 µM (inactive)
GI50 (HCT-15): 49.3 µM
GI50 (SN12C): 45.2 µM (inactive)
GI50 (MDA-MB-435): 36.8 µM (inactive)
GI50 (UACC-257): 32.1 µM (inactive)
GI50 (BT-549): 23.7 µM (inactive)
GI50 (COLO 205): 40 µM (inactive)
GI50 (NCI/ADR-RES): 30.9 µM (inactive)
GI50 (Malme-3M): 50.8 µM (inactive)
GI50 (K562): 30.3 µM (inactive)
GI50 (HL-60): 24.2 µM (inactive)
GI50 (MDA-MB-231): 50 µM (inactive)
GI50 (SK-OV-3): 47.2 µM (inactive)
GI50 (M14): 22.7 µM (inactive)
GI50 (CAKI-1): 45.1 µM (inactive)
GI50 (A549): 32.9 µM (inactive)
GI50 (T47D): 29.7 µM (inactive)
GI50 (OVCAR-3): 28 µM (inactive)
GI50 (MOLT-4): 23.4 µM (inactive)
GI50 (MCF7): 25.9 µM (inactive)
GI50 (OVCAR-5): 67.6 µM (inactive)
GI50 (SF-539): 27.9 µM (inactive)
GI50 (SNB-75): 29.9 µM (inactive)
GI50 (SW-620): 45.3 µM (inactive)
GI50 (DU-145): 52.2 µM (inactive)
GI50 (UO-31): 34.4 µM (inactive)
GI50 (TK-10): 95.5 µM (inactive)
GI50 (U-251): 28 µM (inactive)
GI50 (HOP-62): 34.8 µM (inactive)
GI50 (NCI-H23): 20 µM (inactive)
GI50 (HT-29): 37.2 µM (inactive)
GI50 (MDA-N): 33.8 µM (inactive)
GI50 (SK-MEL-2): 26.2 µM (inactive)
GI50 (RXF 393): 33.5 µM (inactive)
GI50 (SF-268): 32.4 µM (inactive)
GI50 (SR): 37 µM (inactive)
GI50 (PC-3): 28.8 µM (inactive)
GI50 (CCRF-CEM): 22.9 µM (inactive)
GI50 (UACC-62): 23.9 µM (inactive)
GI50 (IGROV-1): 35.2 µM (inactive)
GI50 (ACHN): 37.7 µM (inactive)
GI50 (NCI-H226): 63.4 µM (inactive)

O=[N+]([O-])C(C=C(n1nnc2ccccc21)n1nnc2ccccc21)=C(n1nnc2ccccc21)n1nnc2ccccc21
GI50 (HCC 2998): > 100 µM (inactive)
GI50 (LOX IMVI): > 100 µM (inactive)
GI50 (786-0): > 100 µM (inactive)
GI50 (OVCAR-8): > 100 µM (inactive)
GI50 (Hs-578T): 58.5 µM (inactive)
GI50 (RPMI-8226): 44.6 µM (inactive)
GI50 (SNB-19): 0.975 µM (active)
GI50 (KM12): > 100 µM (inactive)
GI50 (HCT-116): 46.2 µM (inactive)
GI50 (NCI-H460): > 100 µM (inactive)
GI50 (SF-295): > 100 µM (inactive)
GI50 (HOP-92): 84.1 µM (inactive)
GI50 (EKVX): > 100 µM (inactive)
GI50 (HCT-15): > 100 µM
GI50 (SN12C): > 100 µM (inactive)
GI50 (MDA-MB-435): > 100 µM (inactive)
GI50 (BT-549): > 100 µM (inactive)
GI50 (COLO 205): > 100 µM (inactive)
GI50 (NCI/ADR-RES): > 100 µM (inactive)
GI50 (Malme-3M): > 100 µM (inactive)
GI50 (K562): 42.3 µM (inactive)
GI50 (HL-60): 41 µM (inactive)
GI50 (MDA-MB-231): > 100 µM (inactive)
GI50 (SK-OV-3): > 100 µM (inactive)
GI50 (M14): > 100 µM (inactive)
GI50 (A498): > 100 µM (inactive)
GI50 (CAKI-1): > 100 µM (inactive)
GI50 (A549): > 100 µM (inactive)
GI50 (T47D): > 100 µM (inactive)
GI50 (OVCAR-3): > 100 µM (inactive)
GI50 (MOLT-4): 26.2 µM (inactive)
GI50 (MCF7): > 100 µM (inactive)
GI50 (OVCAR-5): > 100 µM (inactive)
GI50 (SF-539): > 100 µM (inactive)
GI50 (SW-620): > 100 µM (inactive)
GI50 (DU-145): > 100 µM (inactive)
GI50 (UO-31): 22.1 µM (inactive)
GI50 (TK-10): > 100 µM (inactive)
GI50 (U-251): > 100 µM (inactive)
GI50 (HOP-62): > 100 µM (inactive)
GI50 (NCI-H23): > 100 µM (inactive)
GI50 (HT-29): > 100 µM (inactive)
GI50 (MDA-N): > 100 µM (inactive)
GI50 (RXF 393): > 100 µM (inactive)
GI50 (SF-268): > 100 µM (inactive)
GI50 (SR): 23 µM (inactive)
GI50 (PC-3): > 100 µM (inactive)
GI50 (CCRF-CEM): 25 µM (inactive)
GI50 (UACC-62): > 100 µM (inactive)
GI50 (IGROV-1): > 100 µM (inactive)
GI50 (ACHN): > 100 µM (inactive)
GI50 (NCI-H226): > 100 µM (inactive)

C(=C/CCCN1O[C@@H](CCCCCCCCc2cccnc2)[C@H]2CCC[C@H]21)/CCCCCCCCCc1cccnc1
GI50 (LOX IMVI): 12.7 µM (inactive)
GI50 (786-0): 18.7 µM (inactive)
GI50 (OVCAR-8): 31.6 µM (inactive)
GI50 (Hs-578T): 37.8 µM (inactive)
GI50 (RPMI-8226): 7.96 µM (inactive)
GI50 (SNB-19): 25.6 µM (inactive)
GI50 (KM12): 18.5 µM (inactive)
GI50 (HCT-116): 16 µM (inactive)
GI50 (NCI-H460): 17.3 µM (inactive)
GI50 (SK-MEL-5): 17.5 µM (inactive)
GI50 (SF-295): 20 µM (inactive)
GI50 (HOP-92): 13.2 µM (inactive)
GI50 (OVCAR-4): 32.4 µM (inactive)
GI50 (SK-MEL-28): 21.3 µM (inactive)
GI50 (EKVX): 4.48 µM (inactive)
GI50 (HCT-15): 24.8 µM
GI50 (SN12C): 19.7 µM (inactive)
GI50 (MDA-MB-435): 16.2 µM (inactive)
GI50 (UACC-257): 14.6 µM (inactive)
GI50 (BT-549): 33 µM (inactive)
GI50 (COLO 205): 14.9 µM (inactive)
GI50 (NCI/ADR-RES): 28.1 µM (inactive)
GI50 (Malme-3M): 15.4 µM (inactive)
GI50 (K562): 11.1 µM (inactive)
GI50 (HL-60): 5.22 µM (inactive)
GI50 (MDA-MB-231): 17.9 µM (inactive)
GI50 (SK-OV-3): 19 µM (inactive)
GI50 (M14): 24 µM (inactive)
GI50 (A498): 22.1 µM (inactive)
GI50 (CAKI-1): 13.5 µM (inactive)
GI50 (A549): 14.1 µM (inactive)
GI50 (T47D): 20.7 µM (inactive)
GI50 (OVCAR-3): 17.1 µM (inactive)
GI50 (MOLT-4): 21.7 µM (inactive)
GI50 (MCF7): 15.7 µM (inactive)
GI50 (OVCAR-5): 20 µM (inactive)
GI50 (SF-539): 18.1 µM (inactive)
GI50 (SNB-75): 27.1 µM (inactive)
GI50 (SW-620): 31.3 µM (inactive)
GI50 (DU-145): 32.4 µM (inactive)
GI50 (UO-31): 19.4 µM (inactive)
GI50 (TK-10): 18.4 µM (inactive)
GI50 (U-251): 15.7 µM (inactive)
GI50 (HOP-62): 20.8 µM (inactive)
GI50 (NCI-H23): 16.6 µM (inactive)
GI50 (HT-29): 21.9 µM (inactive)
GI50 (MDA-N): 24.1 µM (inactive)
GI50 (SK-MEL-2): 22.4 µM (inactive)
GI50 (RXF 393): 17.1 µM (inactive)
GI50 (SF-268): 23.4 µM (inactive)
GI50 (SR): 17.2 µM (inactive)
GI50 (PC-3): 18.8 µM (inactive)
GI50 (CCRF-CEM): 15.7 µM (inactive)
GI50 (UACC-62): 20.9 µM (inactive)
GI50 (IGROV-1): 30.5 µM (inactive)
GI50 (NCI-H226): 16.4 µM (inactive)
